In patent US11903388B2 (priority 2018, dated 2024):

System: Aspergillus parasiticus B62
Assay type: cell-based

Compound: Cc1cc(OC(=O)c2c(C)cc(O)cc2O)cc(O)c1C(=O)O [Lecanoric acid]
- growth: inhibitory effects

Compound: COC(=O)c1c(C)cc(O)cc1O [methyl-orsellinate]
- growth: inhibitory effects
